Test results: patent publication US9045505B2, “Nitric oxide donors” (University of Otago, priority 2006, dated 2015)

Legend:
liver mitochondria = assay: Exposed protein thiols, glutathionylation and GSH/GSSG in liver mitochondria; type: biochemical, rat
Description: Mitochondrial incubations were usually in KCl buffer (120 mM KCl, 10 mM HEPES, 1 mM EGTA, 100 μM N,N-bis(2-bis[carboxymethyl]aminoethyl) glycine (DTPA) and 10 μM neocuproine, pH 7.2) with 10 mM succinate and 4 μg/ml rotenone in the dark at 37° C., unless stated otherwise. An electrode selective for the TPP moiety of MitoSNAP and MitoNAP was made and used as described previously (Asin-Cayuela, J., Manas, A. R., James, A. M., Smith, R. A. & Murphy, M. P. Fine-tuning the hydrophobicity of a mitochondria-targeted antioxidant. FEBS Letts. 571, 9-16 (2004)). Respiration rates were measured in a Clark type O2 electrode (Rank Brothers, UK). To measure GSH and GSSG, mitochondria (1 mg protein/ml) were incubated with 0-10 μM MitoSNO1 or MitoNAP for 10 min, pelleted by centrifugation and the GSH and GSSG contents assessed by the recycling assay (Scarlett, J. L., Packer, M. A., Porteous, C. M. & Murphy, M. P. Alterations to glutathione and nicotinamide nucleotides during the mitochondrial permeability transition induced by peroxynitrite. Biochem. Pharmacol. 52, 1047-1055 (1996)). The measurement of exposed mitochondrial protein thiols is described below.
Small molecules were removed by centrifugation through MicroBioSpin Columns (cut off=6 kDa), the eluate was clarified by centrifugation (2 min at 10,000×g) and protein thiols measured in triplicate by mixing 10 μl sample or GSH standard with 160 μl of 200 μM dithionitrobenzoic acid (DTNB) in 80 mM NaPi, 1 mM EDTA, pH 8 in a 96 well plate and absorbance at 412 nm was measured after 30 min at room temperature and the thiol content determined from the GSH standard curve. The protein concentration was measured in parallel by the bicinchonininc assay using BSA as a standard.
The interaction of MitoSNAP with mitochondrial thiol proteins is likely to initiate a dynamic process that may lead to other protein thiol modifications, such as disulfide formation, glutathionylation, sulfenylation or sulfenylamide formation, in addition to persistent S-nitrosation. To assess these, the content of reactive, solvent-exposed thiols on native liver mitochondrial proteins was measured. […] This is consistent with the finding that the maximum extent of mitochondrial protein S-nitrosation by 5 μM MitoSNAP (˜500 pmol SNO/mg protein; FIG. 11) was only ˜1% of the total number of protein thiols available. A small amount of MitoSNAP binding to mitochondrial thiol proteins through the formation of mixed disulfides was detectable by immunoblotting.

complex I [1] = assay: S-nitrosation of bovine heart mitochondrial membranes and complex I; type: biochemical
[2] = Reaction with GSH and half-life in the cytosol; type: physicochemical; settings: cytosol (estimated) with 5 mM GSH; physiological GSH concentration of 5 mM
Description: The uptake of alkylTPP molecules into mitochondria within cells is rapid, equilibrating within 5-10 min (Ross, M. F. et al. Rapid and extensive uptake and activation of hydrophobic triphenylphosphonium cations within cells. Biochem. J. 411, 633-645 (2008)), and the rate limiting step is passage across the plasma membrane with rapid subsequent uptake into mitochondria (Ross, M. F. et al. Rapid and extensive uptake and activation of hydrophobic triphenylphosphonium cations within cells. Biochem. J. 411, 633-645 (2008) and Smith, R. A., Kelso, G. F., James, A. M. & Murphy, M. P. Targeting coenzyme Q derivatives to mitochondria. Meth. Enzymol. 382, 45-67 (2004)). Consequently, once through the plasma membrane, MitoSNAP should remain in the cytosol for a very short time before uptake into mitochondria. The rate of reaction of GSH with SNAP is 5.4 M^−1.s^−1 (Hogg, N. The kinetics of S-transnitrosation-a reversible second-order reaction. Anal. Biochem. 272, 257-62 (1999)). While other pathways of MitoSNAP decay in the cytosol may also contribute, GSH is likely to be the major one and at a physiological GSH concentration of 5 mM the half-life for MitoSNAP in the cytosol should be ˜25 s, giving plenty of time for MitoSNAP uptake into mitochondria. […]

complex I [3] = settings: 10 μM
Description: (a) Effect of MitoSNAP on mitochondrial respiration. Heart mitochondria (1 mg protein/ml) were incubated in 1 ml KCl medium supplemented with 1 mM phosphate in an oxygen electrode with 5 mM glutamate and 5 mM malate, or succinate, and incubated with 10 μM MitoSNAP, 10 μM MitoNAP or carrier for 2 min (succinate) or 3 min (glutamate/malate), then 250 μM adenosine diphosphate (ADP) was added and the rate of respiration was measured. Respiration in the presence of MitoSNAP is expressed as a percentage of that with MitoNAP, and are means±sem from 3 separate mitochondrial preparations, each determined in triplicate; *p<0.05 by Student's paired t test. […] Bovine heart mitochondrial membranes (0.25 mg protein/ml) were incubated in 1 ml KCl medium in an O2 electrode at 37° C., and incubated with 75 μM MitoSNAP or MitoNAP, or ethanol carrier for 5 min in the presence or absence of rotenone, then 1 mM NADH or 10 mM succinate was added and the rate of respiration was measured. Data are expressed as respiration in the presence of MitoSNAP or MitoNAP as a percentage of the appropriate controls and are means±range of two separate experiments, each determined in triplicate. […] Then protein SNOs were labelled by maleimide-Cy3 and intact mitochondrial respiratory complexes were separated by BN-PAGE which was then scanned for Cy3 fluorescence. […]

## CC(=O)NC(C(=O)NCCCCC[P+](c1ccccc1)(c1ccccc1)c1ccccc1)C(C)(C)SN=O.CS(=O)(=O)[O-] (stereo not drawn) [MitoSNAP, [5-(2-acetylamino-3-methyl-3-nitrosothio-butyrylamino)-penty1]-triphenylphosphonium methanesulfonate]
Liver mitochondria; 5 μM, 5 min, mean±sem, n=3
  reactive, solvent-exposed thiols on native liver mitochondrial proteins: 46.7±9.6 nmol thiols/mg protein
Liver mitochondria; 10 μM, 10 min
  GSH and GSSG content of mitochondria: no loss of GSH or accumulation of GSSG
Liver mitochondria; mitochondria, MitoSNAP 5 μM
  protein-glutathione mixed disulfides (glutathionylation): not detectable
Complex I [1]; 75 μM, 5 min
  S-nitrosation of complex I (BN-PAGE, Cy3): complex I was S-nitrosated
Complex I [1]; 75 μM, 5 min, mean±SD, n=4
  formation of protein SNOs: 4.8±0.9 nmol protein SNOB/mg protein
Complex I [1]; 1 mM GSH
  decrease of SNO content by GSH treatment: ~53%
[2]
  half-life: ~25 s
Complex I [3]; glutamate/malate
  inhibition of respiration relative to MitoNAP: about 30%
Complex I [3]; succinate
  effect on respiration: very little effect
